Results on one compound are retold here after publication PMC3549253, “Effect of repetitive lysine–tryptophan motifs on the bactericidal activity of antimicrobial peptides” (Amino Acids, 2012).

The test system of assay [1] is S. typhimurium CCARM 8013. The experiment in a line: microbe, parasite or virus in culture. The format is cell-based, Salmonella typhimurium. Particulars: drug-resistant strain, 2 × 10^5 CFU/ml, 24 h at 37° C, average of 3–4 independent experiments, read-out: MIC. From the text:
(§1) Escherichia coli (KCTC 1682), Salmonella typhimurium (KCTC 1926), Pseudomonas aeruginosa (KCTC 1637), Staphylococcus aureus (KCTC 1621), Bacillus subtilis (KCTC 1918), and Listeria monocytogenes (KCTC 3710) were obtained from the Korean Collection for Type Cultures (KCTC). Drug-resistant E. coli strains (CCARM 1229 and CCARM 1238), S. typhimurium strains (CCARM 8007, CCARM 8009, and CCARM 8013), and S. aureus strains (CCARM 3089, CCARM 3090, CCARM 3108, CCARM 3114, and CCARM 3126) were from the Culture Collection of Antibiotic-Resistant Microbes (CCARM) at Seoul Women’s University, Korea.
(§2) The antibacterial activities of the peptides against Gram-negative, Gram-positive and antibiotic-resistant bacterial strains were evaluated using the microbroth dilution method (Park et al. [2003]). Aliquots of culture medium containing bacterial suspensions in mid-logarithmic phase at a concentration of 2 × 10^5 colony forming units (CFU)/ml were added to each well of a multiwell plate containing peptide solution serially diluted 2× in 10 mM sodium phosphate buffer (pH 7.2) or phosphate-buffered saline (PBS, 1.5 mM KH2PO4, 2.7 mM KCl, 8.1 mM Na2HPO4, 150 mM NaCl, pH 7.2). Growth inhibition was evaluated by measuring the absorbance at 620 nm using a Versa-Max microplate Elisa Reader (Molecular Devices Co., Sunnyvale, CA, USA) after 24 h of incubation at 37° C. […] All MIC measurements were the average of 3–4 independent experiments.

Assay [2] concerns S. typhimurium CCARM 8009. The experiment in a line: microbe, parasite or virus in culture. Particulars: drug-resistant strain, 2 × 10^5 CFU/ml, 24 h at 37° C, average of 3–4 independent experiments, read-out: MIC. It is filed as cell-based, Salmonella typhimurium.
Excerpt: as §1, §2

The subject of assay [3] is S. typhimurium CCARM 8007. Briefly: microbe, parasite or virus in culture. The format is cell-based, Salmonella typhimurium. Particulars: drug-resistant strain, 2 × 10^5 CFU/ml, 24 h at 37° C, average of 3–4 independent experiments, read-out: MIC.
Excerpt: as §1, §2

For another assay, the system named is all 16 microbial strains. Briefly: Mean MIC over all strains and therapeutic index. The format is cell-based. As to conditions: MIC values in PBS from all 16 microbial strains; 400 μM used when no activity at 200 μM. As to the method: (§3) The antibacterial activities of the peptides against Gram-negative, Gram-positive and antibiotic-resistant bacterial strains were evaluated using the microbroth dilution method (Park et al. [2003]). Aliquots of culture medium containing bacterial suspensions in mid-logarithmic phase at a concentration of 2 × 10^5 colony forming units (CFU)/ml were added to each well of a multiwell plate containing peptide solution serially diluted 2× in 10 mM sodium phosphate buffer (pH 7.2) or phosphate-buffered saline (PBS, 1.5 mM KH2PO4, 2.7 mM KCl, 8.1 mM Na2HPO4, 150 mM NaCl, pH 7.2). Growth inhibition was evaluated by measuring the absorbance at 620 nm using a Versa-Max microplate Elisa Reader (Molecular Devices Co., Sunnyvale, CA, USA) after 24 h of incubation at 37° C.

The test system of another assay is S. aureus CCARM 3126. The experiment in a line: microbe, parasite or virus in culture. As to conditions: drug-resistant strain, 2 × 10^5 CFU/ml, 24 h at 37° C, average of 3–4 independent experiments.
Excerpt: as §1, §3

A further assay deals with E. coli CCARM 1238. The experiment in a line: microbe, parasite or virus in culture. It is filed as cell-based, Escherichia coli. Particulars: drug-resistant strain, 2 × 10^5 CFU/ml, 24 h at 37° C, average of 3–4 independent experiments.
Excerpt: as §1, §2

The test system of a further assay is S. aureus CCARM 3108. The experiment in a line: microbe, parasite or virus in culture. As to conditions: drug-resistant strain, 2 × 10^5 CFU/ml, 24 h at 37° C, average of 3–4 independent experiments. It is filed as cell-based, Staphylococcus aureus.
Excerpt: as §1, §2

For a further assay, the system named is S. aureus CCARM 3090. Briefly: microbe, parasite or virus in culture. As to conditions: drug-resistant strain, 2 × 10^5 CFU/ml, 24 h at 37° C, average of 3–4 independent experiments. The format is cell-based, Staphylococcus aureus.
Excerpt: as §1, §2

The test system of another assay is S. aureus CCARM 3114. Briefly: microbe, parasite or virus in culture. The format is cell-based, Staphylococcus aureus. Particulars: drug-resistant strain, 2 × 10^5 CFU/ml, 24 h at 37° C, average of 3–4 independent experiments.
Excerpt: as §1, §2

The next assay relates to S. aureus CCARM 3089. Briefly: microbe, parasite or virus in culture. It is filed as cell-based, Staphylococcus aureus. Particulars: drug-resistant strain, 2 × 10^5 CFU/ml, 24 h at 37° C, average of 3–4 independent experiments.
Excerpt: as §1, §2

[4] abbreviates: 10 mM sodium phosphate buffer, pH 7.2.
The mark [5] stands for this setting: PBS, pH 7.2 (number in parentheses).

≈ marks a conversion by molar mass, not a printed value. Where two headings read alike, the source gives them in different places.

In the case of `CC[C@H](C)[C@H](NC(=O)CN)C(=O)NCC(=O)N[C@@H](C)C(=O)N[C@H](C(=O)N[C@@H](CC(C)C)C(=O)N[C@@H](CCCCN)C(=O)N[C@H](C(=O)N[C@@H](CC(C)C)C(=O)N[C@H](C(=O)N[C@H](C(=O)NCC(=O)N[C@@H](CC(C)C)C(=O)N1CCC[C@H]1C(=O)N[C@@H](C)C(=O)N[C@@H](CC(C)C)C(=O)N[C@H](C(=O)N[C@@H](CO)C(=O)N[C@@H](Cc1c[nH]c2ccccc12)C(=O)N[C@H](C(=O)N[C@@H](CCCCN)C(=O)N[C@@H](CCCNC(=N)N)C(=O)N[C@@H](CCCCN)C(=O)N[C@@H](CCCNC(=N)N)C(=O)N[C@@H](CCC(N)=O)C(=O)N[C@@H](CCC(N)=O)C(N)=O)[C@@H](C)CC)[C@@H](C)CC)[C@@H](C)O)[C@@H](C)O)C(C)C)C(C)C` [Melittin, reference compound], the MIC in assay [1] (setting [4]) was 3.12 µM (≈ 8.88 µg/mL); in assay [1] (setting [5]) it was 6.25 µM (≈ 17.8 µg/mL); in [2] (setting [4]) it was 6.25 µM (≈ 17.8 µg/mL); in assay [2] (setting [5]) it was 12.5 µM (≈ 35.6 µg/mL); in assay [3] (setting [4]), 6.25 µM (≈ 17.8 µg/mL); in [3] (setting [5]) it was 12.5 µM (≈ 35.6 µg/mL). Also, the MIC in the assay on S. aureus CCARM 3126 (setting [4]), with S. aureus CCARM 3126 (setting [5]), against E. coli CCARM 1238 (setting [4]), in the assay with E. coli CCARM 1238 (setting [5]), against S. aureus CCARM 3108 (setting [4]) and in the assay with S. aureus CCARM 3108 (setting [5]) was 1.56 (1.56) μM throughout. Besides, the MIC is on record as 3.12 (3.12) μM in the assay on S. aureus CCARM 3090 (setting [4]); 3.12 (3.12) μM in the assay with S. aureus CCARM 3090 (setting [5]); 3.12 (3.12) μM with S. aureus CCARM 3114 (setting [4]); 3.12 (3.12) μM in the assay with S. aureus CCARM 3114 (setting [5]); 1.56 (1.56) μM in the assay with S. aureus CCARM 3089 (setting [4]); 1.56 (1.56) μM in the assay on S. aureus CCARM 3089 (setting [5]). Further, the “GM (geometric mean of MIC values)” value with all 16 microbial strains stood at 3.6 µM.
